US4367216A, “Triiodinated 5-aminoisophthalic acid derivatives” (Schering Aktiengesellschaft, priority 1979, dated 1983)
Blank lines part the entries; values can stand above or below the compound they belong to.

What was measured:
[1] = cited from earlier work
[2] = dimeglumine salt; cited from earlier work
lymphatic system = conditions: cited from earlier work
[3] = Stability to light and air (iodine cleavage); type: physicochemical; conditions: comparison table of A, B and C
lymphatic system of dogs = test: Lymphography comparison of A, B and C after direct and indirect administration; type: in vivo
Experimental: The following table compares the advantageous effects of the compounds of this invention in lymphography, using as test substances thiodipropionic acid bis[3,5-bis-(2,3-dihydroxypropyl-N-methylcarbamoyl)-2,4,6-triiodoanilide] (A) and 4,4,6,6-tetramethyl-4,6-disila-5-oxanonanedioic acid bis[3,5-bis(2,3-dihydroxypropyl-N-methylcarbamoyl)-2,4,6-triiodoanilide] (B) in comparison with the fatty acid ethyl ester of iodinated oleum papaveris (C). The test results were determined on dogs using testing methods conventional in lymphography after direct and indirect administration.

[4] = dogs, direct and indirect administration

Compound: CNC(=O)c1c(I)c(NC(=O)CCCCC(=O)Nc2c(I)c(C(=O)O)c(I)c(C(=O)NC)c2I)c(I)c(C(=O)O)c1I [iocarmic acid]
Osmotic pressure compared with monomers ([1]; dimeglumine salt): somewhat lower osmotic pressure
Concentration in the urine [2]: increased

Compound: CC(=O)NCc1c(I)c(NC(C)=O)c(I)c(C(=O)O)c1I [iodamide]
Compatibility (lymphatic system; crystalline suspensions, inflammation at the injection site and in the lymphatic system): insufficient compatibility
Excretion period (lymphatic system; in vivo): days to weeks

Stability [3]: Stable
Compatibility (embolism) (lymphatic system of dogs; dog, in vivo): No Embolisms
Residence Time in the Body (lymphatic system of dogs; dog, in vivo): Hours
Compound: CN(CC(O)CO)C(=O)c1c(I)c(NC(=O)CCSCCC(=O)Nc2c(I)c(C(=O)N(C)CC(O)CO)c(I)c(C(=O)N(C)CC(O)CO)c2I)c(I)c(C(=O)N(C)CC(O)CO)c1I (stereo not drawn) [A, thiodipropionic acid bis[3,5-bis-(2,3-dihydroxypropyl-N-methylcarbamoyl)-2,4,6-triiodoanilide]]

Compound: CC(=O)Nc1c(I)c(C(=O)N[C@H]2C(O)O[C@H](CO)[C@@H](O)[C@@H]2O)c(I)c(N(C)C(C)=O)c1I (stereo partly drawn) [metrizamide]
Osmotic pressure ([1]; solution of 300 mg iodine/ml, blood 7.5 atmospheres): 12 atmospheres
Usefulness for lymphography (lymphatic system; in vivo): useless for lymphography

Compound: CN(CC(O)CO)C(=O)c1c(I)c(NC(=O)CC[Si](C)(C)O[Si](C)(C)CCC(=O)Nc2c(I)c(C(=O)N(C)CC(O)CO)c(I)c(C(=O)N(C)CC(O)CO)c2I)c(I)c(C(=O)N(C)CC(O)CO)c1I (stereo not drawn) [B, 4,4,6,6-tetramethyl-4,6-disila-5-oxanonanedioic acid bis[3,5-bis(2,3-dihydroxypropyl-N-methylcarbamoyl)-2,4,6-triiodoanilide]]
Stability [3]: Stable
Compatibility (embolism) (lymphatic system of dogs; [4]): No Embolisms
Residence Time in the Body (lymphatic system of dogs; [4]): Hours
